Assays:
[1] = test system: GLXMA; assay: D. Pre-emergence effects on crop plants (Tables D); type: in vivo, Glycine max; settings: crop plant
Method in brief: (§1)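 Pre-emergence soil-surface treatment at 320 g/ha or lower, using wettable-powder or emulsifiable-concentrate formulations in water plus 0.5% additive, over freshly sown seeds in covered sandy loam. Damage was rated visually as percent versus untreated pots (100% = dead plants) after about 3 weeks of greenhouse growth.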

[2] = test system: VIOTR; assay: C. Herbicidal pre-emergence action, weed and crop plants (Tables C); type: in vivo, Viola tricolor; settings: application rate 320 g/ha; Table C12a
Text: (§2) Seeds of mono- and dicotyledonous weed plants and crop plants were sown, in plastic or organic planting pots, in sandy loam and covered with soil. The compounds according to the invention, formulated in the form of wettable powders (WP) or as emulsifiable concentrates (EC), were applied to the surface of the covering soil as aqueous suspension or emulsion, with the addition of 0.5% of an additive, at an application rate of 6001 of water/ha (converted). Following treatment, the pots were placed in a greenhouse and kept under optimum growth conditions for the test plants. The visual grading of the damage to the test plants was carried out after ca. 3 weeks in comparison to untreated controls (herbicidal effect in percent (%): 100% effect = plants have died off, 0% effect = as control plants). Tables C1 to C12 below show the effects of selected compounds of the general formula (I) according to table 1 on various harmful plants and an application rate corresponding to 320 g/ha or below obtained by the experimental procedure mentioned above. Table C1: pre-emergence activity at 320g/ha against KCHSC in %

[3] = test system: BRSNW; assay: D. Pre-emergence effects on crop plants (Tables D); type: in vivo, Brassica napus; settings: crop plant
Method in brief: as §1

[4] = test system: ZEAMX; assay: F. Post-emergence effects on crop plants (Tables F); type: in vivo, Zea mays; settings: crop plant
Method in brief: (§3)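 Plants were grown in sandy loam in a greenhouse and sprayed post-emergence at the single-leaf stage, 2–3 weeks after sowing. Visual damage was scored after ca. 3 weeks against untreated controls (0% = as control, 100% = dead).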

[5] = test system: TRZAS; assay: as above; type: in vivo, Triticum aestivum; settings: crop plant
Method in brief: as §3

[6] = test system: BRSNW; assay: as above; type: in vivo, Brassica napus; settings: application rate 320 g/ha, crop plant
Method in brief: as §3

[7] = test system: KCHSC; assay: C. Herbicidal pre-emergence action, weed and crop plants (Tables C); type: in vivo, Kochia scoparia; settings: application rate 320 g/ha; Table C1
Text: as §2

[8] = test system: ZEAMX; assay: D. Pre-emergence effects on crop plants (Tables D); type: in vivo, Zea mays; settings: crop plant
Text: (§4) Seeds of mono- and dicotyledonous weed plants and crop plants were sown, in plastic or organic planting pots, in sandy loam and covered with soil. The compounds according to the invention, formulated in the form of wettable powders (WP) or as emulsifiable concentrates (EC), were applied to the surface of the covering soil as aqueous suspension or emulsion, with the addition of 0.5% of an additive, at an application rate of 6001 of water/ha (converted).
(§5) Following treatment, the pots were placed in a greenhouse and kept under optimum growth conditions for the test plants. The visual grading of the damage to the test plants was carried out after ca. 3 weeks in comparison to untreated controls (herbicidal effect in percent (%): 100% effect = plants have died off, 0% effect = as control plants).
(§6) Tables D1 to D5 below show the effects of various compounds of the general formula (I) according to Table 1 on various crop plants and an application rate corresponding to 320 g/ha or below obtained by the experimental procedure mentioned above in Biological Examples, Section C. Table D1a: pre-emergence activity at 320g/ha against ZEAMX in %

[9] = test system: GLXMA; assay: F. Post-emergence effects on crop plants (Tables F); type: in vivo, Glycine max; settings: application rate 320 g/ha, crop plant
Method in brief: as §3

[10] = test system: TRZAS; assay: D. Pre-emergence effects on crop plants (Tables D); type: in vivo, Triticum aestivum; settings: crop plant
Text: as §4, §5, §6

[11] = test system: POAAN; assay: A. Herbicidal pre-emergence action on harmful plants (Tables A); type: in vivo, Poa annua
Method in brief: (§7)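 Greenhouse pre-emergence test: compound applied to the soil surface at 1280 g/ha or below, and herbicidal effect rated visually at ca. 3 weeks on a 0–100% scale against untreated plants.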

[12] = test system: AMARE; assay: as above; type: in vivo, Amaranthus retroflexus; settings: application rate 1280 g/ha; visual grading after ca. 3 weeks vs untreated controls; 100% = plants have died off, 0% = as control plants
Method in brief: as §7

[13] = test system: AMARE; assay: B. Herbicidal post-emergence action on harmful plants (Tables B); type: in vivo, Amaranthus retroflexus; settings: application rate 1280 g/ha; Table B8
Procedure: (§8) Seeds of mono- and dicotyledonous weed plants were placed in plastic pots in sandy loam soil (doubly sown with in each case one species of mono- or dicotyledonous weed plants per pot), covered with soil and cultivated in a greenhouse under controlled growth conditions. 2 to 3 weeks after sowing, the test plants were treated at the one-leaf stage. The compounds of the invention, formulated in the form of wettable powders (WP) or as emulsion concentrates (EC), were applied onto the green parts of the plants as aqueous suspension or emulsion with addition of 0.5% additive at a water application rate of 600 liters per hectare (converted). After the test plants had been kept in the greenhouse under optimum growth conditions for about 3 weeks, the activity of the preparations was rated visually in comparison to untreated controls. For example, 100% activity = the plants have died, 0% activity = like control plants. Tables B1 to B12, below, show the effects of selected compounds of the general formula (I) according to table 1 on various harmful plants and an application rate corresponding to 1280 g/ha or below obtained by the experimental procedure mentioned above. Table B1a: post-emergence activity at 1280g/ha against ABUTH in %

[14] = test system: KCHSC; assay: as above; type: in vivo, Kochia scoparia; settings: application rate 1280 g/ha; Table B10a
Procedure: as §8

[15] = test system: MATIN; assay: A. Herbicidal pre-emergence action on harmful plants (Tables A); type: in vivo, Matricaria inodora; settings: application rate 1280 g/ha; visual grading after ca. 3 weeks vs untreated controls; 100% = plants have died off, 0% = as control plants
Method in brief: as §7

[16] = test system: DIGSA; assay: as above; type: in vivo, Digitaria sanguinalis
Method in brief: as §7

[17] = test system: POAAN; assay: B. Herbicidal post-emergence action on harmful plants (Tables B); type: in vivo, Poa annua; settings: application rate 1280 g/ha; Table B7a
Method in brief: (§9)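 Activity was scored visually as % damage (100% = dead, 0% = like untreated) about 3 weeks after treatment. Plants at the one-leaf stage, 2-3 weeks old, were sprayed with WP/EC formulations plus 0.5% additive (600 L/ha water, up to 1280 g/ha). Plants were grown in sandy loam in a greenhouse.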

[18] = test system: LOLRI; assay: A. Herbicidal pre-emergence action on harmful plants (Tables A); type: in vivo, Lolium rigidum; settings: visual grading after ca. 3 weeks vs untreated controls, 100% = plants have died off, 0% = as control plants
Method in brief: as §7

[19] = test system: SETVI; assay: as above; type: in vivo, Setaria viridis; settings: visual grading after ca. 3 weeks vs untreated controls, 100% = plants have died off, 0% = as control plants
Method in brief: as §7

[20] = test system: STEME; assay: as above; type: in vivo, Stellaria media; settings: visual grading after ca. 3 weeks vs untreated controls, 100% = plants have died off, 0% = as control plants
Method in brief: as §7

[21] = test system: ABUTH; assay: as above; type: in vivo, Abutilon theophrasti; settings: application rate 1280 g/ha; visual grading after ca. 3 weeks vs untreated controls; 100% = plants have died off, 0% = as control plants
Text: Seeds of mono- and dicotyledonous weed plants were sown in plastic pots (double sowings with one species of mono- and one species of dicotyledonous weed plants per pot), in sandy loam, and covered with soil. The compounds according to the invention, formulated in the form of wettable powders (WP) or as emulsifiable concentrates (EC), were applied to the surface of the covering soil as aqueous suspension or emulsion, with the addition of 0.5% of an additive, at an application rate of 6001 of water per hectare (converted). Following treatment, the pots were placed in a greenhouse and kept under optimum growth conditions for the test plants. The visual grading of the damage to the test plants was carried out after ca. 3 weeks in comparison to untreated controls (herbicidal effect in percent (%): 100% effect = plants have died off, 0% effect = as control plants). Tables A1 to A12, below, show the effects of selected compounds of the general formula (I) according to table 1 on various harmful plants and an application rate corresponding to 1280 g/ha or below obtained by the experimental procedure mentioned above. Table A1: pre-emergence activity at 1280g/ha against ABUTH in %

[22] = test system: SETVI; assay: B. Herbicidal post-emergence action on harmful plants (Tables B); type: in vivo, Setaria viridis; settings: application rate 1280 g/ha; Table B5
Method in brief: as §9

[23] = test system: STEME; assay: as above; type: in vivo, Stellaria media; settings: application rate 1280 g/ha; Table B6
Method in brief: as §9

[24] = test system: ECHCG; assay: A. Herbicidal pre-emergence action on harmful plants (Tables A); type: in vivo, Echinochloa crus-galli; settings: visual grading after ca. 3 weeks vs untreated controls, 100% = plants have died off, 0% = as control plants
Method in brief: as §7

COCc1c(C(=O)N2CCCC2(C)Cc2ccccc2F)cnn1C (single isomer, unassigned) [Example I-066]
pre-emergence activity against GLXMA ([1]; application rate 80 g/ha, Table D4b): 0%
pre-emergence activity against GLXMA ([1]; application rate 320 g/ha, Table D4a): 0%
pre-emergence activity against VIOTR [2]: 80%
pre-emergence activity against BRSNW in % ([3]; application rate 80 g/ha): 0%
pre-emergence activity against BRSNW in % ([3]; application rate 320 g/ha): 0%
post-emergence activity against ZEAMX in % ([4]; application rate 80 g/ha): 0%
post-emergence activity against ZEAMX in % ([4]; application rate 320 g/ha): 0%
post-emergence activity against TRZAS in % ([5]; application rate 80 g/ha): 0%
post-emergence activity against TRZAS in % ([5]; application rate 320 g/ha): 0%
post-emergence activity against BRSNW in % [6]: 0%
pre-emergence activity against KCHSC [7]: 100%
pre-emergence activity against ZEAMX ([8]; application rate 80 g/ha, Table D1b): 0%
pre-emergence activity against ZEAMX ([8]; application rate 320 g/ha, Table D1a): 0%
post-emergence activity against GLXMA in % [9]: 0%
pre-emergence activity against TRZAS ([10]; application rate 80 g/ha, Table D2b): 0%
pre-emergence activity against TRZAS ([10]; application rate 320 g/ha, Table D2a): 0%

Cn1ncc(C(=O)N2CCCC2Cc2ccccc2F)c1COCC(F)(F)F (single isomer, unassigned) [Example I-122]
pre-emergence activity against POAAN ([11]; application rate 80 g/ha, Table A7c): 90%
pre-emergence activity against POAAN ([11]; application rate 320 g/ha, Table A7b): 100%
pre-emergence activity against POAAN ([11]; application rate 1280 g/ha, visual grading after ca. 3 weeks vs untreated controls, 100% = plants have died off, 0% = as control plants): 100%
pre-emergence activity against AMARE [12]: 100%
post-emergence activity against AMARE [13]: 90%
post-emergence activity against KCHSC [14]: 90%
pre-emergence activity against MATIN [15]: 100%
pre-emergence activity against DIGSA ([16]; application rate 80 g/ha, Table A12c): 90%
pre-emergence activity against DIGSA ([16]; application rate 320 g/ha, Table A12b): 90%
pre-emergence activity against DIGSA ([16]; application rate 1280 g/ha, Table A12a): 100%
post-emergence activity against POAAN [17]: 90%
pre-emergence activity against LOLRI ([18]; application rate 320 g/ha): 100%
pre-emergence activity against LOLRI ([18]; application rate 1280 g/ha): 100%
pre-emergence activity against SETVI ([19]; application rate 80 g/ha): 90%
pre-emergence activity against SETVI ([19]; application rate 320 g/ha): 90%
pre-emergence activity against SETVI ([19]; application rate 1280 g/ha): 100%
pre-emergence activity against STEME ([20]; application rate 320 g/ha): 90%
pre-emergence activity against STEME ([20]; application rate 1280 g/ha): 100%
pre-emergence activity against ABUTH [21]: 100%
post-emergence activity against SETVI [22]: 90%
post-emergence activity against STEME [23]: 90%
pre-emergence activity against ECHCG ([24]; application rate 80 g/ha): 90%
pre-emergence activity against ECHCG ([24]; application rate 320 g/ha): 100%
pre-emergence activity against ECHCG ([24]; application rate 1280 g/ha): 100%

From EP4417602A1, “SUBSTITUTED PYRAZOLE CARBOXAMIDES, SALTS THEREOF AND THEIR USE AS HERBICIDALLY ACTIVE SUBSTANCES” (Bayer AG, priority 2023, dated 2024)
